Data as given in US20260265538A1, “Aqueous Industrial Product Stabilized Against Microbial Contamination” (Thor GmbH, priority 2023, published 2026).

System: Bacteria mixture 2 (alkaliphilic bacteria of the Nesterenkonia & Alkalibacterium genus)
Assay: Repetitive stress test of paints with bacteria mixture 2, semiquantitative evaluation (examples 4 and 5)
Format: cell-based
Set-up: key to Bacterial growth after inoculation: 0: No growth; Minimal growth, 1 to 10 colonies visible over the entire streak; 2: Light growth, maximum 100 colonies; Moderate growth, maximum 300 to 400 colonies; Uniform growth, >400 colonies, single colonies still clearly recognizable; 5: Heavy growth, too many colonies to count, but no growth over the entire streak; 6: Full growth, barely any single colonies still apparent, growth over the entire streak
From the text: Paints 1 to 3 were mixed and homogenized with various concentrations of the guanidinium salts to be tested.
The batches obtained of the paint thus prepared were inoculated repeatedly with a mixture of different wild-type bacterial strains that are of practical relevance with regard to contamination. These bacteria had previously been isolated from commercial emulsion paints containing conventional preservatives (bacteria mixture 1, Pseudomonas genus), which are microbially contaminated in practice, and commercial so-called preservative-free alkaline emulsion paints (bacteria mixture 2, alkaliphilic bacteria of the Nesterenkonia & Alkalibacterium genus), which are microbially contaminated in practice.
• Nesterenkonia sp. DSM 108520 • Nesterenkonia sp. DSM 108521 • Alkalibacterium pelagium DSM 108522 • Nesterenkonia massiliensis DSM 110679 • Nesterenkonia sp. DSM 108519
The inoculum was added to the respective sample in each inoculation at 2% (v/w) as a fresh cell suspension in a physiological saline solution (0.9% NaCl). The cell count of the added inoculum in example 1 was 10^5/ml, in examples 2 to 5 10^9/ml, and in example 6 10^6/ml, each in equal portions consisting of the individual bacterial strains. The cell suspension was produced by growing the individual bacteria at 30° C. for 24 h in liquid culture on a shaker. The medium used to grow the bacteria from bacteria mixture 1 was Müller-Hinton liquid medium. Bacteria from bacteria mixture 2 were grown in Müller-Hinton liquid medium that had been adjusted to pH 9.5-9.7 with an alkaline buffer solution beforehand. After growing, the individual liquid cultures were centrifuged, and the cells were resuspended in physiological saline solution. In order to adjust the mixture to the desired cell count, the individual bacteria suspensions, if necessary, were diluted accordingly before being combined with saline solution. The cell count of the inoculum was determined in each case by chamber counting.
In examples 2 to 6, what is called a repetitive stress test with bacteria was conducted by inoculating the samples at particular time intervals repeatedly with a bacteria suspension having a cell count of 10^9/ml (2% v/w) and monitoring the evolution of the bacteria by a semiquantitative evaluation method. After each inoculation, the samples were incubated at 30° C. for 6 days (bacteria mixture 1 and 3) or 7 and 14 days (bacteria mixture 2), and after these periods bacterial infestation was evaluated semiquantitatively in each case. For this purpose, an aliquot was taken from each sample after homogenization using a sterile plastic inoculation loop (10 μl) and streaked evenly on agar plates (bacteria mixture 1 and 3 on tryptic soy agar, bacteria mixture 2 on DSMZ 31 alkaline nutrient agar). The streaked agar plates were then incubated at 30° C. for 48 h (bacteria mixture 1 and 3) or 5 to 7 days (bacteria mixture 2). After incubation, the bacterial colonies grown on the agar plates were visually evaluated and quantified according to the following scheme:
A total of 3 inoculation cycles was performed in each repetitive stress test.
Inoculation 2% (w/v) with Bacteria Mixture 2, 10^9 CFU/ml

N=C(N)N.N=C(N)N.O=C(O)O [guanidine carbonate]
Bacterial growth after inoculation (Table 4, Paint 2, +0.1% guanidine carbonate (656 ppm guanidine), pH 8.9, 2. inoculation, 14 d): 4 (Uniform growth, >400 colonies, single colonies still clearly recognizable) | Bacterial growth after inoculation (Table 4, Paint 2, +0.1% guanidine carbonate (656 ppm guanidine), pH 8.9, 3. inoculation, 7 d): 6/6 | Bacterial growth after inoculation (Table 4, Paint 2, +0.1% guanidine carbonate (656 ppm guanidine), pH 8.9, 3. inoculation, 14 d): 6/6 | Bacterial growth after inoculation (Table 4, Paint 2, +0.15% guanidine carbonate (984 ppm guanidine), pH 9.0, 1. inoculation, 7 d): 0/0 | Bacterial growth after inoculation (Table 4, Paint 2, +0.15% guanidine carbonate (984 ppm guanidine), pH 9.0, 1. inoculation, 14 d): 0/0 | Bacterial growth after inoculation (Table 4, Paint 2, +0.15% guanidine carbonate (984 ppm guanidine), pH 9.0, 2. inoculation, 7 d): 2 (Light growth, maximum 100 colonies) | Bacterial growth after inoculation (Table 4, Paint 2, +0.15% guanidine carbonate (984 ppm guanidine), pH 9.0, 2. inoculation, 14 d): 1 (Minimal growth, 1 to 10 colonies visible over the entire streak) | Bacterial growth after inoculation (Table 4, Paint 2, +0.15% guanidine carbonate (984 ppm guanidine), pH 9.0, 3. inoculation, 7 d): 6/6 | Bacterial growth after inoculation (Table 4, Paint 2, +0.15% guanidine carbonate (984 ppm guanidine), pH 9.0, 3. inoculation, 14 d): 6/6 | Bacterial growth after inoculation (Table 4, Paint 2, +0.2% guanidine carbonate (1312 ppm guanidine), pH 9.1, 1. inoculation, 7 d): 0/0 | Bacterial growth after inoculation (Table 4, Paint 2, +0.2% guanidine carbonate (1312 ppm guanidine), pH 9.1, 1. inoculation, 14 d): 0/0 | Bacterial growth after inoculation (Table 4, Paint 2, +0.2% guanidine carbonate (1312 ppm guanidine), pH 9.1, 2. inoculation, 7 d): 0/0 | Bacterial growth after inoculation (Table 4, Paint 2, +0.2% guanidine carbonate (1312 ppm guanidine), pH 9.1, 2. inoculation, 14 d): 0/0 | Bacterial growth after inoculation (Table 4, Paint 2, +0.2% guanidine carbonate (1312 ppm guanidine), pH 9.1, 3. inoculation, 7 d): 6/6 | Bacterial growth after inoculation (Table 4, Paint 2, +0.2% guanidine carbonate (1312 ppm guanidine), pH 9.1, 3. inoculation, 14 d): 6/6 | Bacterial growth after inoculation (Table 4, Paint 2, +0.25% guanidine carbonate (1640 ppm guanidine), pH 9.1, 1. inoculation, 7 d): 0/0 | Bacterial growth after inoculation (Table 4, Paint 2, +0.25% guanidine carbonate (1640 ppm guanidine), pH 9.1, 1. inoculation, 14 d): 0/0 | Bacterial growth after inoculation (Table 4, Paint 2, +0.25% guanidine carbonate (1640 ppm guanidine), pH 9.1, 2. inoculation, 7 d): 0/0 | Bacterial growth after inoculation (Table 4, Paint 2, +0.25% guanidine carbonate (1640 ppm guanidine), pH 9.1, 2. inoculation, 14 d): 0/0 | Bacterial growth after inoculation (Table 4, Paint 2, +0.25% guanidine carbonate (1640 ppm guanidine), pH 9.1, 3. inoculation, 7 d): 0/0 | Bacterial growth after inoculation (Table 4, Paint 2, +0.25% guanidine carbonate (1640 ppm guanidine), pH 9.1, 3. inoculation, 14 d): 0/0 | Bacterial growth after inoculation (Table 4, Paint 2, +0.3% guanidine carbonate (1968 ppm guanidine), pH 9.2, 1. inoculation, 7 d): 0/0 | Bacterial growth after inoculation (Table 4, Paint 2, +0.3% guanidine carbonate (1968 ppm guanidine), pH 9.2, 1. inoculation, 14 d): 0/0 | Bacterial growth after inoculation (Table 4, Paint 2, +0.3% guanidine carbonate (1968 ppm guanidine), pH 9.2, 2. inoculation, 7 d): 0/0 | Bacterial growth after inoculation (Table 4, Paint 2, +0.3% guanidine carbonate (1968 ppm guanidine), pH 9.2, 2. inoculation, 14 d): 0/0 | Bacterial growth after inoculation (Table 4, Paint 2, +0.3% guanidine carbonate (1968 ppm guanidine), pH 9.2, 3. inoculation, 7 d): 0/0 | Bacterial growth after inoculation (Table 4, Paint 2, +0.3% guanidine carbonate (1968 ppm guanidine), pH 9.2, 3. inoculation, 14 d): 0/0 | Bacterial growth after inoculation (Table 4, Paint 2, +0.4% guanidine carbonate (2624 ppm guanidine), pH 9.3, 1. inoculation, 7 d): 0/0 | Bacterial growth after inoculation (Table 4, Paint 2, +0.4% guanidine carbonate (2624 ppm guanidine), pH 9.3, 1. inoculation, 14 d): 0/0 | Bacterial growth after inoculation (Table 4, Paint 2, +0.4% guanidine carbonate (2624 ppm guanidine), pH 9.3, 2. inoculation, 7 d): 0/0 | Bacterial growth after inoculation (Table 4, Paint 2, +0.4% guanidine carbonate (2624 ppm guanidine), pH 9.3, 2. inoculation, 14 d): 0/0 | Bacterial growth after inoculation (Table 4, Paint 2, +0.4% guanidine carbonate (2624 ppm guanidine), pH 9.3, 3. inoculation, 7 d): 0/0 | Bacterial growth after inoculation (Table 4, Paint 2, +0.4% guanidine carbonate (2624 ppm guanidine), pH 9.3, 3. inoculation, 14 d): 0/0 | Bacterial growth after inoculation (Table 4, Paint 2, +0.5% guanidine carbonate (3280 ppm guanidine), pH 9.4, 1. inoculation, 7 d): 0/0 | Bacterial growth after inoculation (Table 4, Paint 2, +0.5% guanidine carbonate (3280 ppm guanidine), pH 9.4, 1. inoculation, 14 d): 0/0 | Bacterial growth after inoculation (Table 4, Paint 2, +0.5% guanidine carbonate (3280 ppm guanidine), pH 9.4, 2. inoculation, 7 d): 0/0 | Bacterial growth after inoculation (Table 4, Paint 2, +0.5% guanidine carbonate (3280 ppm guanidine), pH 9.4, 2. inoculation, 14 d): 0/0 | Bacterial growth after inoculation (Table 4, Paint 2, +0.5% guanidine carbonate (3280 ppm guanidine), pH 9.4, 3. inoculation, 7 d): 0/0 | Bacterial growth after inoculation (Table 4, Paint 2, +0.5% guanidine carbonate (3280 ppm guanidine), pH 9.4, 3. inoculation, 14 d): 0/0 | Bacterial growth after inoculation (Table 4, Paint 2, +1.0% guanidine carbonate (6560 ppm guanidine), pH 9.8, 1. inoculation, 7 d): 0/0 | Bacterial growth after inoculation (Table 4, Paint 2, +1.0% guanidine carbonate (6560 ppm guanidine), pH 9.8, 1. inoculation, 14 d): 0/0 | Bacterial growth after inoculation (Table 4, Paint 2, +1.0% guanidine carbonate (6560 ppm guanidine), pH 9.8, 2. inoculation, 7 d): 0/0 | Bacterial growth after inoculation (Table 4, Paint 2, +1.0% guanidine carbonate (6560 ppm guanidine), pH 9.8, 2. inoculation, 14 d): 0/0 | Bacterial growth after inoculation (Table 4, Paint 2, +1.0% guanidine carbonate (6560 ppm guanidine), pH 9.8, 3. inoculation, 7 d): 0/0 | Bacterial growth after inoculation (Table 4, Paint 2, +1.0% guanidine carbonate (6560 ppm guanidine), pH 9.8, 3. inoculation, 14 d): 0/0 | Bacterial growth after inoculation (Table 5, Paint 3, +0.15% guanidine carbonate (984 ppm guanidine), pH 11.2, 1. inoculation, 7 d): 3 (Moderate growth, maximum 300 to 400 colonies) | Bacterial growth after inoculation (Table 5, Paint 3, +0.15% guanidine carbonate (984 ppm guanidine), pH 11.2, 1. inoculation, 14 d): 0 | Bacterial growth after inoculation (Table 5, Paint 3, +0.15% guanidine carbonate (984 ppm guanidine), pH 11.2, 2. inoculation, 7 d): 3 (Moderate growth, maximum 300 to 400 colonies) | Bacterial growth after inoculation (Table 5, Paint 3, +0.15% guanidine carbonate (984 ppm guanidine), pH 11.2, 2. inoculation, 14 d): 0 | Stabilization of the paint against microbial infestation (table 4, addition of 0.1% by weight to paint 1 having a pH of 9.1 or greater): distinct stabilization | Stabilization of the paint against microbial infestation (table 4, addition of 0.1% by weight to paint 2 having a pH of 8.9 or greater): distinct stabilization | Stabilization of the paint against microbial infestation (table 5, paint having a pH of pH 11.2, addition of 0.1% by weight): distinct stabilization
